Source: PMC8778187, “A New Oxygen Containing Pyclen-Type Ligand as a Manganese(II) Binder for MRI and ^52Mn PET Applications: Equilibrium, Kinetic, Relaxometric, Structural and Radiochemical Studies” (Molecules, 2022)
Where two headings read alike, the source gives them in different places. Marks after values point to notes of the source that are not given here. Values belong to the molecule of their own block, whether it stands above or below them.

What was measured:
[1] = Zn^2+ complex, T = 25 °C, I = 0.15 M NaCl, cited from earlier work; for log KMnLOH: DO2A values carry footnote f, ref 12 (DO2A ligands); for log KMnLOH / log KMnL: 20 (H21,7-O2DO2A); for log KMnL / log KMnHL: ref 16 (PC2A ligands), 12 (DO2A ligands)
[2] = Cu^2+ complex; T = 25 °C, I = 0.15 M NaCl; ref 16 (PC2A ligands), 12 (DO2A ligands), 20 (H21,7-O2DO2A); cited from earlier work
[3] = T = 25 °C, I = 0.15 M NaCl, ref 16 (PC2A ligands), 12 (DO2A ligands), cited from earlier work; for log K1^H / log K2^H / log K3^H / Σlog Κ2^H: 20 (H21,7-O2DO2A); for Σlog Κ2^H: log K1^H + log K2^H
[4] = T = 25 °C, ref 16 (PC2A ligands), 12 (DO2A ligands), cited from earlier work; for log KMnL / log KMnHL: Mn^2+ complex, I = 0.15 M NaCl; for log KMnL / pMn: 20 (H21,7-O2DO2A); for pMn: pMn = −log(Mn(II)free), cMn^2+ = cligand = 1 × 10^−5 M, pH = 7.4
[5] = Ca^2+ complex; T = 25 °C, I = 0.15 M NaCl; ref 16 (PC2A ligands), 12 (DO2A ligands), 20 (H21,7-O2DO2A); cited from earlier work
[6] = cited from earlier work; for r1p: Mn(II) complex, 0.49 T, pH = 7.4, ref 16 (PC2A ligands), 12 (DO2A ligands), 20 (H21,7-O2DO2A); for r1p / relaxivity upon binding to HSA: 25 °C; for relaxivity upon binding to HSA: Mn(II) bound to HSA; for relaxivity of complexes with q = 0: typical values
[7] = 1H relaxometry: r1p and r2p relaxivity of Mn(II) complexes; type: physicochemical; settings: free Mn(II) ion, 1.41 T
Method: The relaxivity of Mn(II) complexes is one of the most important parameters that directly correlates with its MRI efficacy. Relaxivity is defined as the longitudinal (r1p) and transverse (r2p) water proton relaxation rate enhancement, provided by 1.0 mM concentration of the paramagnetic species. The relaxivity (r1p and r2p) of the Mn(II) complexes were determined using relaxometers operating at 0.49 T and 1.41 T field strength, in a HEPES buffer (I = 0.15 M NaCl) at different temperatures from the slopes of plots 1/T1,2 vs. (Mn(II)) for 4 concentrations of Mn(II) (data shown in Supporting Information Figures S24 and S25), and they are compared in Table 4.
The ^1H longitudinal (T1) and transverse (T2) relaxation times were measured by using Bruker Minispec MQ-20 and MQ-60 NMR analyzers (Bruker corporation, Billerica, MA, USA). The temperature of the sample holder was set at 25.0 or 37 (±0.2) °C, and controlled with a circulating water bath thermostat. The T1 values of the samples were determined by means of the inversion recovery method (180°–τ–90°), averaging 4–6 data points obtained at 12 different τ delay times, while T2 data were collected by using the Carl–Purcell–Meiboom–Gill (CPMG) spin-echo pulse sequence. Relaxivities were determined by published procedures (from the slopes of the plots of 1/T1,2 vs. (Mn(II)) for 4 concentrations of Mn(II)), in samples of 0.3–0.4 mL volume (data shown in Figures S24 and S25, Supplementary Information). The pH were set by either using a 0.05 M 4-(2-hydroxyethyl)-1-piperazine-ethanesulfonic acid (HEPES) buffer (pH = 7.4) or monitored (pH profiles) using a Metrohm 827 pH lab pH meter and a Metrohm 6.0234.100 combined electrode, in the pH range of 1.75–11.8.

[8] = cited from earlier work; for r1^298_20 MHz: 20 MHz, 298 K; for ΔH^‡: activation enthalpy of water exchange; for τv^298: correlation time of ZFS modulation; for q: hydration number; for τR^298: rotational correlation time; for Δ^2: square of the zero-field splitting energy; for kex^298: water exchange rate
[9] = 17O NMR and NMRD measurements (water exchange, rotation, hydration number); type: physicochemical; settings: ratio of kex^298 values
Method: The relaxivity of paramagnetic metal complexes is governed by several parameters, including the water exchange rate (kex), the rotational correlation time (τR), and the number of inner sphere water molecules (q). In order to obtain information for these parameters, temperature dependent ^17O NMR measurements (9.4 T) and nuclear magnetic relaxation dispersion (NMRD) experiments were carried out in the frequency range of 0.01–80 MHz, at 3 different temperatures (25, 37, and 50 °C). Since numerous physico-chemical parameters determine the relaxivity, the independent assessment of some of the parameters is essential for the correct characterization. The variable temperature ^17O NMR measurements can deliver information about kex and τR via the transverse (1/T2) and the longitudinal (1/T1) ^17O relaxation rates, respectively, while the ^17O chemical shifts (Δω) depend on q. Therefore, the transverse and longitudinal relaxation rates and chemical shifts for a [Mn(3,9-OPC2A)] complex and a diamagnetic reference sample (HClO4, pH = 3.3) have been determined in the aqueous solution.
The ^17O 1/T2r values and the NMRD data have been analyzed simultaneously by the Swift–Connick equations [31], as well as by the Solomon–Bloembergen–Morgan (SMB) and Freed models (see Supporting Information). In this calculation, the water exchange rate, kex^298; its activation enthalpy and entropy, ΔH^‡ and ΔS^‡; the rotational correlational time, τR; its activation energy, ER; the square of the zero-field splitting energy (ZFS), Δ^2; and the correlation time of its modulation, τv, have been determined and listed in Table 5, together with corresponding values of other complexes for comparison. As a result of the high number of parameters involved in the calculations, some have to be set to reasonable estimates based on literature data. Thus, the scalar coupling constant, A/ħO, is set to 33 × 10^6 rad s^−1, the distance between the metal ion, and the inner and outer sphere water protons are fixed to rMnH = 2.83 Å and aMnH = 3.6 Å, respectively; the diffusion coefficient and its activation energy are fixed to DMnH = 23 × 10^−10 m^2s^−1 and EMnH = 18 kJmol^−1, and the activation energy of the modulation of the zero-field-splitting, Ev to 1.0 kJmol^−1.
The hydration number has been fixed to q = 1, based on the relaxivity value measured at 20 MHz (r1 = 3.09 mM^−1s^−1), and on the value, 0.97 ± 0.2, determined for q using the method proposed by Gale et al..
A Bruker Avance 400 (9.4 T) spectrometer was used to measure the longitudinal (1/T1) and transverse (1/T2) relaxation rates, and the chemical shifts of an aqueous solution of the [Mn(3,9-OPC2A)] complex (pH = 7.4, 1.3 mM) and a diamagnetic reference (HClO4 acidified water, pH = 3.3) in the temperature range of 273–348 K. The temperature calibration was performed using literature protocols relying on ethylene glycol and methanol standards. The 1/T1 and 1/T2 values were determined by the inversion−recovery and the Carr−Purcell−Meiboom−Gill spin echo technique, respectively. To avoid susceptibility corrections of the chemical shifts, a glass sphere fitted into a 10 mm NMR tube was used to contain the samples. ^17O enriched water (10% H2^17O, CortecNet) was added to the solutions to improve sensitivity (circa 1% enrichment). Proton NMRD profiles of the [Mn(3,9-OPC2A)] complex (1.00 mM, pH = 7.4) were recorded in aqueous solution on a Stelar SMARTracer Fast Field Cycling relaxometer (0.01−10 MHz), and a Bruker WP80 NMR electromagnet adapted to variable field measurements (20−80 MHz) and controlled by a SMARTracer PC-NMR console (Stelar s.r.l., Mede, Italy). The temperature was monitored by a VTC91 temperature control unit and maintained by a gas flow. The temperature was determined by previous calibration with a Pt resistance temperature probe. […]

[10] = cited from earlier work; for k2: ref 16 ([Mn(3,6-PC2A)]), 12 ([Mn(1,4-DO2A)]), 20 ([Mn(1,7-O2DO2A)]); for t1/2 (h) at pH = 7.4: extrapolated to pH = 7.4; for t1/2 (h) at pH = 7.4 / k1: ref 16 (PC2A complexes), 12, 13, 20; for k1: proton assisted dissociation
[11] = fixed during the fitting procedure

Structure (SMILES): O=C(O)CN1CCNCCNCCN(CC(=O)O)CC1 [H21,4-DO2A]
log KMnLOH [1]: 1.65 ^f
log KMnL [1]: 18.03
log KMnHL [1]: 3.58
log KMnHL [2]: 2.95
log KMnL [2]: 24.43 ^g
log K1^H [3]: 11.44
log K2^H [3]: 9.51
log K3^H [3]: 4.14
log K4^H [3]: 1.55
Σlog Κ2^H [3]: 20.95
log KMnL [4]: 15.68
log KMnHL [4]: 4.15
pMn [4]: 7.27
log KMnL [5]: 8.62
r1p [6]: 2.10 mM⁻¹ s⁻¹

Structure (SMILES): O=C(O)CN1CCNCCN(CC(=O)O)CCNCC1 [H21,7-DO2A]
log KMnLOH [1]: 1.78 ^f
log KMnL [1]: 18.86
log KMnHL [1]: 4.23
log KMnHL [2]: 3.06
log KMnL [2]: 24.24
log K1^H [3]: 11.69
log K2^H [3]: 9.75
log K3^H [3]: 3.97
log K4^H [3]: 2.68
Σlog Κ2^H [3]: 21.44
log KMnL [4]: 14.64
log KMnHL [4]: 4.40
pMn [4]: 6.52
log KMnL [5]: 8.86
r1p [6]: 1.50 mM⁻¹ s⁻¹

r2p relaxivity ([7]; 25 °C): 64.3 mM⁻¹ s⁻¹
r2p relaxivity ([7]; 37 °C): 54.2 mM⁻¹ s⁻¹
Structure (SMILES): [Mn+2] [Mn(II) ion]
relaxivity upon binding to HSA ([6]; 0.47 T): 97.2 mM⁻¹ s⁻¹
relaxivity upon binding to HSA ([6]; 1.41 T): 76.35 mM⁻¹ s⁻¹
relaxivity in pure aqueous solution ([6]; Mn(II) ion): 7.92 mM⁻¹ s⁻¹

Structure (SMILES): O=C([O-])CN1CCNCCNCCN(CC(=O)[O-])CC1.[Mn+2] [[Mn(1,4-DO2A)]]
r1^298_20 MHz [8]: 2.1 mM⁻¹ s⁻¹
ER ([8]; activation energy of rotation): 19.1 kJmol^−1
ΔH^‡ [8]: 29.4 kJmol^−1
τv^298 [8]: 4.4 ps
q [8, 11]: 0.87
τR^298 [8]: 46 ps
Δ^2 [8]: 481 10^18s^−2
kex^298 [8]: 113 10^7s^−1
water exchange faster than on [Mn(3,9-OPC2A)] [9]: 20 times
k2 ([10]; T = 25 °C, I = 0.15 M NaCl): 1.4 × 10^6 M^−2s^−1
t1/2 (h) at pH = 7.4 [10]: 48 h
k1 ([10]; T = 25 °C, I = 0.15 M NaCl): 99 M⁻¹ s⁻¹

Structure (SMILES): CN(C)C(=O)CN1CCNCCNCCN(CC(=O)N(C)C)CC1.O.[Mn+2] [[Mn(1,4-DO2AM^Me2)]^2+]
r1^298_20 MHz [8]: 2.5 mM⁻¹ s⁻¹
ER ([8]; activation energy of rotation): 19.1 kJmol^−1
ΔH^‡ [8]: 36.9 kJmol^−1
τv^298 [8]: 5.5 ps
q [8, 11]: 0.87
τR^298 [8]: 53 ps
Δ^2 [8]: 510 10^18s^−2
kex^298 [8]: 11.5 10^7s^−1
t1/2 (h) at pH = 7.4 [10]: 556 h
k1 ([10]; T = 25 °C, I = 0.15 M NaCl): 8.7 M⁻¹ s⁻¹

Structure (SMILES): O.O=C([O-])CN1CCOCCN(CC(=O)[O-])CCOCC1.[Mn+2] [[Mn(1,7-O2DO2A)]]
r1^298_20 MHz [8]: 2.86 mM⁻¹ s⁻¹
ΔH^‡ [8]: 29.7 kJmol^−1
ΔS^‡ ([8]; activation entropy of water exchange): 2.8 JK^−1mol^−1
ER [8, 11]: 20 ^e kJmol^−1
q [8, 11]: 1
τR^298 [8]: 46.7 ps
Δ^2 [8]: 111 10^18s^−2
kex^298 [8]: 5.3 10^7s^−1
k2 ([10]; T = 25 °C, I = 0.15 M NaCl): 3.0 × 10^6 M^−2s^−1
t1/2 (h) at pH = 7.4 [10]: 56.8 h
k1 ([10]; T = 25 °C, I = 0.15 M NaCl): 85 M⁻¹ s⁻¹

Structure (SMILES): O.O=C([O-])CN1CCNCc2cccc(n2)CN(CC(=O)[O-])CC1.[Mn+2] [[Mn(3,6-PC2A)]]
k2 ([10]; T = 25 °C, I = 0.15 M NaCl): 1.5 × 10^5 M^−2s^−1
t1/2 (h) at pH = 7.4 [10]: 63.2 h
k3 ([10]; metal assisted dissociation, T = 25 °C, I = 0.15 M NaCl): 0.026 M⁻¹ s⁻¹
k1 ([10]; T = 25 °C, I = 0.15 M NaCl): 70 M⁻¹ s⁻¹
KMnL x H ([10]; protonation constant of the complex from kinetic fit, T = 25 °C, I = 0.15 M NaCl): 1.15 × 10^3
KML x Cu ([10]; stability constant of dinuclear intermediate, T = 25 °C, I = 0.15 M NaCl, unit assumed): 16 M⁻¹

Structure (SMILES): O=C([O-])CN1CCNCCN(CC(=O)[O-])CCN(CC(=O)[O-])CC1.[Mn+2] [[Mn(DO3A)]^−]
relaxivity of complexes with q = 0 [6]: 1.4 to 1.6 mM⁻¹ s⁻¹

Structure (SMILES): O=C([O-])CN1CCN(CC(=O)[O-])Cc2cccc(n2)CN(CC(=O)[O-])CC1.[Mn+2] [[Mn(PCTA)]^−]
relaxivity of complexes with q = 0 [6]: 1.4 to 1.6 mM⁻¹ s⁻¹
